Results published in patent US20040006070A1, “Intraspinal continuous infusion of midazolam hydrochloride for the treatment of pain” (priority 2002, published 2004).

Assays:
[1] = cited from earlier work
[2] = Physiological data: indirect blood pressure, pulse, rectal temperature, weight; type: in vivo, sheep; details: sheep #980 Dudley
Excerpt: Daily rectal temperatures were taken and any behavioral/motor changes were noted. Gait monitoring will be conducted as described below based on a four-grade scale for the evaluation of behavioral and motor changes. Grade 0: animal standing, sheep is able to rise and ambulate without any difficulty. Grade 1: Shuffling of either rear leg or slight limp; slight distortion of normal spinal axis. Grade 2: Loss of righting reflex in one of the rear legs, sheep able to stand without assistance, but with some difficulty. Grade 3: Inability to maintain standing posture; attempts to help animal stand are unsuccessful.
Indirect blood pressure, pulse recording, pain testing (mechanical stimulus device, cold and warm water baths see description in procedure) and weight were taken on days 1, 3, 7, 15, 22, 29, 36, and 43. Venous blood samples (15 ml drawn from the jugular vein with Vacutainer brand blood collection tubes) for complete blood count, electrolytes, and extended blood chemistry were drawn on days 1, 15, and 43 (mild procedure only light hand restraint necessary).

[3] = test system: neuropathic pain model in the sheep; test: Neuropathic pain model in sheep, behavior monitoring (Observer 3.0) with visual analog pain score; type: in vivo; details: sheep #980 Dudley
Excerpt: The neuropathic pain model in the sheep is created by placing four tight ligatures around the median, radial, or ulnar nerve (or a combination thereof) with 0-chromic gut suture. This method produces a chronic painful peripheral mononeuropathy which may be related to those conditions seen in humans with causalgia and reflex sympathetic dystrophy.
To evaluate animal behavior, the Observer 3.0 software (Noldus Information Technology, The Netherlands) was used to aid docmentation of a daily record of multiple traits. […] The behavior was then interpreted into a visual analog pain score (VAS), where 0 represents no pain and 100 represents severe pain.
Approximately three days prior to surgery each sheep will undergo a 15-minute baseline behavior evaluation. The observations made in this evaluation include, a computerized behavior software recording (the Observer) for 15minutes—gait monitoring—and recording of pain perception via visual analog scale-using the Observer. In some animals, recording of vital signs (blood pressure, heart rate, respirations per minute) will be performed using the Observer. Baseline values for pain perception are recorded via the mechanical stimulus device and/or behavior monitoring will also be performed at this time.
The sheep will be observed daily postoperatively. […] Observations of neuropathic pain development include changes in ambulation, alertness, appetite, urination, defecation, herding activity, body temperature and pain behaviors. This daily behavior is recorded utilizing the observer (an observational software system).

[4] = MDZ 3 mg per day, daily values, first and second course
[5] = MS 6.5 mg per day, daily values

COc1ccc2c3c1O[C@H]1C(=O)CC[C@@]4(O)[C@@H](C2)N(C)CC[C@]314 [Oxycodone]
approximate equipotent dose, IT ([1]; route IT): 10 | approximate equipotent dose, IV ([1]; route IV): 200 | approximate equipotent dose, PO ([1]; route PO): 600

Cc1ncc2n1-c1ccc(Cl)cc1C(c1ccccc1F)=NC2 [MDZ]
Resp per min. ([2]; MDZ 4 mg per day): 58 per min. | Other behavior: Defaecation ([3]; MDZ 2 mg per day): 0.65% | Other behavior: Eating lying ([3]; MDZ 2 mg per day): 1.69% | Other behavior: Ruminating laying down ([3]; MDZ 2 mg per day): 98.28%, | Other behavior: Ruminating standing ([3]; MDZ 2 mg per day): 0.48% | Grind teeth ([3]; MDZ 2 mg per day, daily values): 0% | Other behavior ([3]; MDZ 2 mg per day, daily values): 0 | Other behavior: Defaecation ([3]; MDZ 3 mg per day): 0.49% | Other behavior: Drinking ([3]; MDZ 3 mg per day): 0.6% | Other behavior: Eating lying ([3]; MDZ 3 mg per day): 1.14% | Grind teeth [3, 4]: 0% | Holding unoperated leg off the ground [3, 4]: 0% | Other behavior [3, 4]: 0 | Eating ([3]; MDZ 4 mg per day): 36.49% | Grind teeth ([3]; MDZ 4 mg per day): 0% | Holding operated leg off the ground ([3]; MDZ 4 mg per day): 2.78% | Holding unoperated leg off the ground ([3]; MDZ 4 mg per day): 0.36% | Laying down ([3]; MDZ 4 mg per day): 0% | Not bearing weight on operated leg ([3]; MDZ 4 mg per day): 29.65% | Observe Operated leg ([3]; MDZ 4 mg per day): 1.51% | Other behavior: Bleating ([3]; MDZ 4 mg per day): 0.76% | Pain Score ([3]; MDZ 4 mg per day): 50% | Standing ([3]; MDZ 4 mg per day): 0.52% | Walking ([3]; MDZ 4 mg per day): 1.09% | Grind teeth ([3]; MDZ 5 mg per day, daily values): 0% | Holding unoperated leg off the ground ([3]; MDZ 5 mg per day, daily values): 0% | Laying down ([3]; MDZ 5 mg per day, daily values): 0% | Observe Operated leg ([3]; MDZ 5 mg per day, daily values): 0% | Pain Score ([3]; MDZ 5 mg per day, daily values): 85% | Standing ([3]; MDZ 5 mg per day, daily values): 0% | Other behavior: Defaecation ([3]; MDZ 6 mg per day): 0.94% | Other behavior: Eating lying ([3]; MDZ 6 mg per day): 0.21% | Other behavior: Pulling wool ([3]; MDZ 6 mg per day): 0.26%, | Grind teeth ([3]; MDZ 6 mg per day, daily values): 0% | Holding unoperated leg off the ground ([3]; MDZ 6 mg per day, daily values): 0% | Laying down ([3]; MDZ 6 mg per day, daily values): 0% | Other behavior ([3]; MDZ 6 mg per day, daily values): 0 | Standing ([3]; MDZ 6 mg per day, daily values): 0%

CN1CC[C@]23c4c5ccc(O)c4O[C@H]2[C@@H](O)C=C[C@H]3[C@H]1C5.CN1CC[C@]23c4c5ccc(O)c4O[C@H]2[C@@H](O)C=C[C@H]3[C@H]1C5.O=S(=O)(O)O [MS]
Resp per min. ([2]; MS 2 mg per day): 22 per min. | Resp per min. ([2]; MS 4 mg per day): 64 per min. | Resp per min. ([2]; MS 6 mg per day): 64 per min. | Other behavior: Drink ([3]; MS 1 mg per day): 0.5% | Laying down ([3]; MS 1 mg per day, daily values): 0% | Other behavior ([3]; MS 1 mg per day, daily values): 0 | Eating ([3]; MS 2 mg per day): 0% | Grind teeth ([3]; MS 2 mg per day): 1.39% | Holding operated leg off the ground ([3]; MS 2 mg per day): 15.88% | Holding unoperated leg off the ground ([3]; MS 2 mg per day): 0% | Laying down ([3]; MS 2 mg per day): 0% | Not bearing weight on operated leg ([3]; MS 2 mg per day): 64.74% | Observe Operated leg ([3]; MS 2 mg per day): 0.19% | Other behavior ([3]; MS 2 mg per day): 0 | Pain Score ([3]; MS 2 mg per day): 90% | Standing ([3]; MS 2 mg per day): 17.34% | Walking ([3]; MS 2 mg per day): 0.47% | Other behavior: Ruminating standing ([3]; MS 3 mg per day): 2.69% | Holding unoperated leg off the ground ([3]; MS 3 mg per day, daily values): 0% | Laying down ([3]; MS 3 mg per day, daily values): 0% | Other behavior ([3]; MS 3 mg per day, daily values): 0 | Pain Score ([3]; MS 3 mg per day, daily values): 85% | Standing ([3]; MS 3 mg per day, daily values): 0% | Eating ([3]; MS 4 mg per day): 4.72% | Grind teeth ([3]; MS 4 mg per day): 0% | Holding operated leg off the ground ([3]; MS 4 mg per day): 5.2% | Holding unoperated leg off the ground ([3]; MS 4 mg per day): 0% | Laying down ([3]; MS 4 mg per day): 0% | Not bearing weight on operated leg ([3]; MS 4 mg per day): 69.53% | Observe Operated leg ([3]; MS 4 mg per day): 0% | Other behavior: Ruminating standing ([3]; MS 4 mg per day): 15.2% | Pain Score ([3]; MS 4 mg per day): 83% | Standing ([3]; MS 4 mg per day): 0% | Walking ([3]; MS 4 mg per day): 5.36% | Other behavior: Bleating ([3]; MS 5 mg per day): 0.98% | Other behavior: Eating lying ([3]; MS 5 mg per day): 0.7%, | Other behavior: Pulling wool ([3]; MS 5 mg per day): 0.28%, | Other behavior: pawing ground ([3]; MS 5 mg per day): 0.85% | Grind teeth ([3]; MS 5 mg per day, daily values): 0% | Standing ([3]; MS 5 mg per day, daily values): 0% | Eating ([3]; MS 6 mg per day): 0% | Grind teeth ([3]; MS 6 mg per day): 0% | Holding operated leg off the ground ([3]; MS 6 mg per day): 9.77% | Holding unoperated leg off the ground ([3]; MS 6 mg per day): 0.52% | Laying down ([3]; MS 6 mg per day): 43.57% | Not bearing weight on operated leg ([3]; MS 6 mg per day): 35.43% | Observe Operated leg ([3]; MS 6 mg per day): 0.66% | Other behavior ([3]; MS 6 mg per day): 0 | Pain Score ([3]; MS 6 mg per day): 80% | Standing ([3]; MS 6 mg per day): 0.99% | Walking ([3]; MS 6 mg per day): 9.07% | Other behavior: Eating lying ([3]; MS 6.5 mg per day): 9.31% | Holding unoperated leg off the ground [3, 5]: 0% | Other behavior [3, 5]: 0
